From US9655822B2, “Hydrated lamellar phases or liposomes which contain a fatty monoamine or a cationic polymer which promotes intracellular penetration, and a cosmetic or pharmaceutical composition containing same, as well as a method of screening such a substance” (BASF Beauty Care Solutions France S.A.S., priority 2004, dated 2017)

What was measured:
normal human fibroblasts [1] = test: Cell viability in the screening of functionalising molecules; details: 1% of molecule (25 kDa PEI: 50 μM), 96-well plate
Protocol: 250 μl of liposomal suspension is added onto cultures of normal human fibroblasts extracted from abdominal plasy and cultivated in a 96-well plate. Each concentration is tested on 6 different wells. The cell viability is evaluated by a test with paranitrophenylphosphate which determines the intracellular alkaline phosphatase activity after three rinses with pH 7.4 phosphate buffer. The percentage of living cells is calculated with respect to a control made without the addition of liposome in the culture well (n=6).
55 molecules are firstly tested in triplicate, in comparison with the 50 μM 25 kDa PEI. The intracellular penetration is quantified after 24 hours of incubation on normal human fibroblasts cultivated in 24-well plates as described in Example 2. The cell viability is estimated in a 96-well plate with 200 μl of liposomal suspension.
The intracellular penetration and the cytotoxicity are evaluated as described in Example 2.

[2] = Encapsulation of fluorescent tracer in soya lecithin liposomes (yield, leak); format: physicochemical
Protocol: 0.5 g of soya lecithin, 0.01% of fluorescent tracer which is pre-solubilised according to the recommendations of the provider, are introduced into a dish and is diluted in 10 ml of Trizma buffer. After magnetic agitation for 30 minutes at ambient temperature, the mixture is vigorously homogenised for 10 minutes, in thus obtaining a liposomal solution in which the liposomes have an average size which can vary between 100 and 800 nanometres according to the exact conditions of homogenisation.
The aim of the purification step is to separate the non-encapsulated tracer fraction from the fraction of tracer which is encapsulated in the liposomes. For this, the liposomal solution is centrifuged in a conical tube for 10 minutes at 1,790 g at ambient temperature. The plugs are then recovered and then solubilised in 10 ml of culture medium.
Liposomes are prepared according to the method described in Example 5 with increasing concentrations of 25 kDa PEI from 0 to 100 μM. After centrifugation at 1,790 g for 10 minutes, the supernatants are quantified by spectrofluorimetry. The yields of encapsulation are calculated with respect to the initial concentration.

normal human fibroblasts [3] = test: Intracellular penetration of fluorescent tracers, free or in liposomes (spectrofluorimetry); format: cell-based; details: for cell-permeating: free probe; for Penetration in liposome: probe encapsulated in liposome; for Penetration (fluorescence after washing): 0.01% tracer in liposomes; for Penetration (fluorescence after washing) / Penetration free probe: 24 hours, gain (45 PFB-F, 50 TRITC)
Source text: (§1) The selection of the tracer necessitated the preparation and the purification of liposomes, according to the protocol described in Example 1, these liposomes containing varying concentrations of the various hydrosoluble or liposoluble tracers (Table 1, Annex 1). The controls—a free fluorescent tracer—are made by dissolution at the same concentration of fluorescent tracer in the dilution buffer, so as to quantify its cytotoxicty and its spontaneous penetration in the fibroblasts.
Practically, after extraction from a biopsy originating from abdominal plastic surgery, the fibroblasts are amplified in DF medium, i.e.: DMEM (Dulbecco's Modified Eagle's Medium)/Ham F12 glutamax 50/50 volume/volume, supplemented with 10% of calf serum, with penicillin at a final concentration of 100 UI/millilitre, with gentamicin at a final concentration of 1 microgram/millilitre, with amphotericin B at a final concentration of 1 microgram/millilitre.
Firstly, after centrifugation, the purified liposomes are taken up into DF culture medium, homogenised in a vortex, and are deposited at the rate of 1 ml per well on the fibroblasts cultivated in 24-well plates (Costar MW24). The controls are made under the same conditions. A non-treated control is also made.
(§2) The fibroblasts are incubated for 24 hours at 37° C. in the presence of the liposomes, and are then rinsed 3 times in pH 7.4 phosphate buffer. First of all, the fluorescence is evaluated dry by spectrofluorimetry with a Cytofluor 4000® (Millipore). Secondly, the intracellular fluorescence is observed for the molecules of interest on an Olympus® reverse microscope (IX70) by using the corresponding excitation filter (objective ×10, ×40 and ×100). Finally, the cytotoxicity of the fluorescent tracers is evaluated in a 96-well plate by incubation for 24 hours as described in Example 1.
The intracellular penetration of liposomes which contain 5% of soya lecithin, 0.01% of PFB-F or TRITC in the presence or not of 0.5% 25 kDa polyethylenimine (PEI), which are prepared according to the protocol described in Example 1, is analysed after incubation for 24 hours on human fibroblasts cultivated in a 24-well plate, as described in Example 2.

normal human fibroblasts [4] = test: Cytotoxicity of the fluorescent tracers (paranitrophenylphosphate test); format: cell-based; details: for Cell viability (% of untreated control): incubation 24 hours
Protocol: Each concentration is tested on 6 different wells.
as §1, §2

tyrosinase = target: T1, tyrosinase (Homo sapiens, UniProt P14679); test: Tyrosinase activity in melanocytes (L-DOPA/MBTH); format: cell-based; design: unit not given here; details: 66 hours; for Depigmenting effect: rate of enzymatic reaction (tyrosinase activity), Free: active applied free, normal human melanocytes; for Depigmenting effect: rate of enzymatic reaction (tyrosinase activity), PEI Liposome: active in 10 μM PEI functionalised liposome; for Depigmenting effect: rate of enzymatic reaction (tyrosinase activity), Soya liposome: active in 2% quaternised soya liposome; for Depigmenting effect: rate of enzymatic reaction (tyrosinase activity), Lipsosome: active in 5% lecithin liposome
T1 construct: on normal human melanocytes cultivated in 24-well plates and pre-confluent; endogenous in cells; host or cells: normal human melanocytes
T1 sequence (P14679 19-529): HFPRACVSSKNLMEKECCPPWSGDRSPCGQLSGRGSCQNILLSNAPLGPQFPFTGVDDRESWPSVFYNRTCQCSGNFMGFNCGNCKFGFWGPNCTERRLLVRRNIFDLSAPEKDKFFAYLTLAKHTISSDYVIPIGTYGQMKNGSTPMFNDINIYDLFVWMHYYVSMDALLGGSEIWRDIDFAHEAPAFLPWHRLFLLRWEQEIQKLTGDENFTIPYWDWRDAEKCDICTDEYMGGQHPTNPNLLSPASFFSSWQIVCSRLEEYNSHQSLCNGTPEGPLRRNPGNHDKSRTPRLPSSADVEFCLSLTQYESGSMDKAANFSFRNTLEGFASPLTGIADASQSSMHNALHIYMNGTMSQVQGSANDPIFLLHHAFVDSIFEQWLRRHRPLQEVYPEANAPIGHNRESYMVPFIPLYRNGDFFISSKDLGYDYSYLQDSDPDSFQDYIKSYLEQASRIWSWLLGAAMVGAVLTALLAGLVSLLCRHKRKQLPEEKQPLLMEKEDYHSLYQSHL
Protocol: Actives are also co-encapsulated: Phytolight® (Coletica, Lyons, France) without 0.05% preservative (cocktail of plant actives), 0.05% arbutine and 1 mM catechin (Sigma). […] The actives which are liposomed or not are incubated for 66 hours at 37° C. under 5% CO2 in MMK2 medium (Sigma). […] The formation of a MBTH-o-quinone compound is characterised by an absorbance value at 490 nm quantified kinetically. The tyrosinase activity is expressed by the slope (rate) of the enzymatic reaction.

Compound: CCCCCCCCNCCCCCCCC [Dioctylamine 2 C8, Dioctylamine]
- Viability (normal human fibroblasts [1]): 34.7%

Compound: NNC(=O)COc1cc(S(=O)(=O)[O-])c2ccc3c(S(=O)(=O)[O-])cc(S(=O)(=O)[O-])c4ccc1c2c43.[Na+].[Na+].[Na+] [cascade blue hydrazine trisodium salt]
- Encapsulated [2]: Yes
- cell-permeating (normal human fibroblasts [3]): No
- Penetration in liposome (normal human fibroblasts [3]): Very low
- Toxicity (normal human fibroblasts [4]): No

Compound: CCCCCCCCCCCCCCCN [Pentadecylamine C15, Pentadecylamine]
- Viability (normal human fibroblasts [1]): 73%

Compound: dextran texas red [#D-3329 dextran texas red]
- cell-permeating (normal human fibroblasts [3]): No
- Penetration in liposome (normal human fibroblasts [3]): No

Compound: CCCCCCCN [Heptylamine C7, Heptylamine]
- Viability (normal human fibroblasts [1]): 39.4%

Compound: carboxyethyl carboxyffluorescein [#B-1151 carboxyethyl carboxyffluorescein]
- Encapsulated [2]: No

Compound: sulfo fluorescein diacetate [#S-1129 sulfo fluorescein diacetate]
- cell-permeating (normal human fibroblasts [3]): no
- Penetration in liposome (normal human fibroblasts [3]): Very low
- Toxicity (normal human fibroblasts [4]): No

Compound: O=S(=O)([O-])c1cc(O)c2ccc3c(S(=O)(=O)[O-])cc(S(=O)(=O)[O-])c4ccc1c2c34.[Na+].[Na+].[Na+] [hydroxypyrene trisulfonic acid, trisodium salt]
- Encapsulated [2]: No
- cell-permeating (normal human fibroblasts [3]): No
- Penetration in liposome (normal human fibroblasts [3]): No

Compound: CCCCCCCC/C=C\CCCCCCCCN [Oleylamine C18:1, Oleylamine]
- Viability (normal human fibroblasts [1]): 87.1%

Compound: Catechin
- Depigmenting effect: rate of enzymatic reaction (tyrosinase activity), Free (tyrosinase): 0.007
- Depigmenting effect: rate of enzymatic reaction (tyrosinase activity), PEI Liposome (tyrosinase): 0
- Depigmenting effect: rate of enzymatic reaction (tyrosinase activity), Soya liposome (tyrosinase): 0.003
- Depigmenting effect: rate of enzymatic reaction (tyrosinase activity), Lipsosome (tyrosinase): 0.007

Compound: CCCCCCCCCCCCCCN [Tetradecylamine C14, Tetradecylamine]
- Viability (normal human fibroblasts [1]): 54.8%

Compound: CC(O)CN(CCN(CC(C)O)CC(C)O)CC(C)O (stereo not shown) [Tetrahydroxypropyl ethylenediamine]
- Viability (normal human fibroblasts [1]): 95.3%

Compound: OC[C@H]1O[C@@H](Oc2ccc(O)cc2)[C@H](O)[C@@H](O)[C@@H]1O [Arbutin]
- Depigmenting effect: rate of enzymatic reaction (tyrosinase activity), Free (tyrosinase): 0.004
- Depigmenting effect: rate of enzymatic reaction (tyrosinase activity), PEI Liposome (tyrosinase): 0
- Depigmenting effect: rate of enzymatic reaction (tyrosinase activity), Soya liposome (tyrosinase): 0
- Depigmenting effect: rate of enzymatic reaction (tyrosinase activity), Lipsosome (tyrosinase): 0.001

Compound: CCCCCCCCCCN [Decylamine C10, Decylamine]
- Viability (normal human fibroblasts [1]): 68.5%

Compound: O=C1OC2(c3ccc(O)cc3Oc3cc(O)ccc32)c2ccc(NC(=O)c3c(F)c(F)c(F)c(F)c3F)cc21 [PFB-F, 5-pentafluorobenzoylaminofluorescein]
- Encapsulated [2]: Yes
- leak [2]: No
- Yield (%) of encapsulation of PFB-F ([2]; PEI 0 μM): 89.0%
- Yield (%) of encapsulation of PFB-F ([2]; PEI 1 μM): 92.3%
- Yield (%) of encapsulation of PFB-F ([2]; PEI 10 μM): 91.0%
- Yield (%) of encapsulation of PFB-F ([2]; PEI 50 μM): 87.5%
- Yield (%) of encapsulation of PFB-F ([2]; PEI 100 μM): 86.3%
- yield of incorporation in the liposomes ([2]; liposomes based on soya lecithin): about 80%
- Penetration (fluorescence after washing) (normal human fibroblasts [3]): 65 (gain 45)
- cell-permeating (normal human fibroblasts [3]): No
- Penetration free probe (normal human fibroblasts [3]; free tracer): 8 (gain 45)
- Penetration in liposome (normal human fibroblasts [3]): Yes
- Cell viability (% of untreated control) (normal human fibroblasts [4]): 110.7%

Compound: CCCCCCCCCCCCCCCCCCN [Octadecylamine C18, Octadecylamine]
- Viability (normal human fibroblasts [1]): 61.2%

Compound: CCCCNCCCC [Dibutylamine 2 C4, Dibutylamine]
- Viability (normal human fibroblasts [1]): 75.7%

Compound: carboxy dichlorofluorescein [#C-369 carboxy dichlorofluorescein]
- Encapsulated [2]: Yes
- leak [2]: Yes
- cell-permeating (normal human fibroblasts [3]): Yes

Compound: CCCCCCCCCCCCCCCCCC[N+](C)(C)Cc1ccccc1.[Cl-] [Stearalkonium chloride, benzyldimethyl (octadecyl) ammonium chloride]
- Viability (normal human fibroblasts [1]): 37.4%

Compound: CCCN [Propylamine C3, Propylamine]
- Viability (normal human fibroblasts [1]): 103.3%

Compound: tetramethylrhodamine isothiocyanate [TRITC]
- Encapsulated [2]: Yes
- Penetration (fluorescence after washing) (normal human fibroblasts [3]): 1,119 (gain 50)
- penetration when added free in the culture medium (in words) (normal human fibroblasts [3]; free tracer): penetrates slightly
- Penetration free probe (normal human fibroblasts [3]; free tracer): 295 (gain 50)
- Penetration in liposome (normal human fibroblasts [3]): Yes
- Toxicity (normal human fibroblasts [4]): No
- cytotoxicity (in words) (normal human fibroblasts [4]): slightly cyctotoxic
- Cell viability (% of untreated control) (normal human fibroblasts [4]): 74.8%

Compound: CCCCCCCCCCCN [Undecylamine C11, Undecylamine]
- Viability (normal human fibroblasts [1]): 84%

Compound: CCCCCCCCCCCCCN [Tridecylamine C13, Tridecylamine]
- Viability (normal human fibroblasts [1]): 62.6%

Compound: CCCCCCCCCCCCN [Dodecylamine C12, Dodecylamine]
- Viability (normal human fibroblasts [1]): 57%

Compound: Lysosensor yellow/blue DND 160 [#L7545L Lysosensor yellow/blue DND 160]
- Encapsulated [2]: Yes
- leak [2]: Yes
- cell-permeating (normal human fibroblasts [3]): Yes
- Penetration in liposome (normal human fibroblasts [3]): No
- Toxicity (normal human fibroblasts [4]): No

Compound: Cc1ccc(N(CC(=O)[O-])CC(=O)[O-])c(OCCOc2cc3cc(-c4ncc(C(=O)[O-])o4)oc3cc2N(CC(=O)[O-])CC(=O)[O-])c1.[K+].[K+].[K+].[K+].[K+] [#F-1200 Fura-2. pentapotassium salt, Fura-2. pentapotassium salt]
- Encapsulated [2]: No
- cell-permeating (normal human fibroblasts [3]): No
- Penetration in liposome (normal human fibroblasts [3]): No
- Toxicity (normal human fibroblasts [4]): No

Compound: CCCCCCCCCCNCCCCCCCCCC [Didecylamine 2 C10, Didecylamine]
- Viability (normal human fibroblasts [1]): 28.3%

Compound: CCCCCCN [Hexylamine C6, Hexylamine]
- Viability (normal human fibroblasts [1]): 82.1%
